Reference: ChEMBL document CHEMBL5108031, “Novel N-(4-thiocyanatophenyl)-1H-1,2,3-triazole-4-carboxamides exhibit selective cytotoxic activity at nanomolar doses towards human leukemic T-cells” (Eur J Med Chem, 2022)
Active and inactive are the calls of the source. The rule behind the calls is not given here.

Tests used:
Jurkat [1] = test: Induction of apoptosis in human Jurkat cells assessed as cell debris at 0.5 uM measured after 24 hrs by Hoechst 33342/propidium iodide staining based fluorescence microscopic analysis; type: functional
[2] = biological target: Heat shock protein HSP 90-alpha (Homo sapiens, UniProt P07900); test: Inhibition of Hsp90alpha (unknown origin)
DNA = test: Binding affinity to DNA (unknown origin) assessed as DNA intercalation at 1 to 100 uM by measuring amount of methyl green dye replaced from DNA-methyl green complex; type: nucleic-acid assay; conditions: Homo sapiens; dose 1-100 µM
A549 = test: Antiproliferative activity against human A549 cells incubated for 72 hrs and measured by MTT assay; type: functional
SR [3] = test: Antiproliferative activity against human SR cells incubated for 48 hrs and measured by SRB assay; type: functional
HCC 2998 = test: Antiproliferative activity against human HCC 2998 cells assessed as relative cell growth at 10 uM incubated for 48 hrs and measured by SRB assay; type: functional; conditions: read-out: Activity
Jurkat [4] = test: Induction of apoptosis in human Jurkat cells assessed as appearance of apoptotic bodies at 0.5 uM measured after 24 hrs by Hoechst 33342/propidium iodide staining based fluorescence microscopic analysis; type: functional, cell-based
SF-539 = test: Antiproliferative activity against human SF-539 cells assessed as relative cell growth at 10 uM incubated for 48 hrs and measured by SRB assay; type: functional; conditions: read-out: Activity
CAKI-1 = test: Antiproliferative activity against human CAKI-1 cells assessed as relative cell growth at 10 uM incubated for 48 hrs and measured by SRB assay; type: functional; conditions: read-out: Activity
WM793 = test: Antiproliferative activity against human WM793 cells incubated for 72 hrs and measured by MTT assay; type: functional
RXF 393 = test: Antiproliferative activity against human RXF 393 cells incubated for 48 hrs and measured by SRB assay; type: functional
THP-1 = test: Antiproliferative activity against human THP-1 cells incubated for 72 hrs and measured by MTT assay; type: functional
Jurkat [5] = test: Induction of apoptosis in human Jurkat cells assessed as cellular membrane blebbing at 0.5 uM measured after 24 hrs by Hoechst 33342/propidium iodide staining based fluorescence microscopic analysis; type: functional, cell-based
HL-60(TB) [6] = test: Antiproliferative activity against human HL-60(TB) cells incubated for 48 hrs and measured by SRB assay; type: functional
HaCaT = test: Antiproliferative activity against human HaCaT cells incubated for 72 hrs and measured by MTT assay; type: functional
BALB/3T3 = test: Antiproliferative activity against mouse BALB/3T3 cells incubated for 72 hrs and measured by MTT assay; type: functional
CCRF-CEM = test: Antiproliferative activity against human CCRF-CEM cells assessed as relative cell growth at 10 uM incubated for 48 hrs and measured by SRB assay; type: functional; conditions: read-out: Activity
SK-OV-3 = test: Antiproliferative activity against human SK-OV-3 cells incubated for 72 hrs and measured by MTT assay; type: functional
SF-295 [7] = test: Antiproliferative activity against human SF-295 cells incubated for 48 hrs and measured by SRB assay; type: functional
Jurkat [8] = test: Induction of apoptosis in human Jurkat cells assessed as decrease in mitochondrial membrane potential at 0.5 uM measured after 24 hrs by Rhodamine 123 fluorescence based assay; type: functional, cell-based
A498 = test: Antiproliferative activity against human A498 cells assessed as relative cell growth at 10 uM incubated for 48 hrs and measured by SRB assay; type: functional; conditions: read-out: Activity
MDA-MB-231 = test: Antiproliferative activity against human MDA-MB-231 cells incubated for 72 hrs and measured by MTT assay; type: functional
K562 [9] = test: Antiproliferative activity against human K562 cells assessed as relative cell growth at 10 uM incubated for 48 hrs and measured by SRB assay; type: functional; conditions: read-out: Activity
HOP-92 = test: Antiproliferative activity against human HOP-92 cells incubated for 48 hrs and measured by SRB assay; type: functional
LOX IMVI [10] = test: Antiproliferative activity against human LOX IMVI cells assessed as relative cell growth at 10 uM incubated for 48 hrs and measured by SRB assay; type: functional; conditions: read-out: Activity
SR [11] = test: Antiproliferative activity against human SR cells assessed as relative cell growth at 10 uM incubated for 48 hrs and measured by SRB assay; type: functional; conditions: read-out: Activity
HEK293 = test: Antiproliferative activity against human HEK293 cells incubated for 72 hrs and measured by MTT assay; type: functional
HCT-116 [12] = test: Antiproliferative activity against human HCT-116 cells incubated for 72 hrs and measured by MTT assay; type: functional
HeLa = test: Antiproliferative activity against human HeLa cells incubated for 72 hrs and measured by MTT assay; type: functional
MCF7 = test: Antiproliferative activity against human MCF7 cells incubated for 72 hrs and measured by MTT assay; type: functional
SF-295 [13] = test: Antiproliferative activity against human SF-295 cells assessed as relative cell growth at 10 uM incubated for 48 hrs and measured by SRB assay; type: functional; conditions: read-out: Activity
Malme-3M = test: Antiproliferative activity against human Malme-3M cells assessed as relative cell growth at 10 uM incubated for 48 hrs and measured by SRB assay; type: functional; conditions: read-out: Activity
Jurkat [14] = test: Induction of DNA damage in human Jurkat cells assessed as olive tail moment at 0.5 uM measured after 24 hrs by comet assay; type: functional
KB 3-1 = test: Antiproliferative activity against human KB 3-1 cells incubated for 72 hrs and measured by MTT assay; type: functional
MDA-MB-468 = test: Antiproliferative activity against human MDA-MB-468 cells assessed as relative cell growth at 10 uM incubated for 48 hrs and measured by SRB assay; type: functional; conditions: read-out: Activity
Jurkat [15] = test: Induction of apoptosis in human Jurkat cells assessed as condensed chromatin at 0.5 uM measured after 24 hrs by Hoechst 33342/propidium iodide staining based fluorescence microscopic analysis; type: functional, cell-based
MOLT-4 = test: Antiproliferative activity against human MOLT-4 cells assessed as relative cell growth at 10 uM incubated for 48 hrs and measured by SRB assay; type: functional; conditions: read-out: Activity
Jurkat [16] = test: Induction of apoptosis in human Jurkat cells assessed as fragmented DNA and nuclei at 0.5 uM measured after 24 hrs by Hoechst 33342/propidium iodide staining based fluorescence microscopic analysis; type: functional, cell-based
COLO 205 = test: Antiproliferative activity against human COLO 205 cells assessed as relative cell growth at 10 uM incubated for 48 hrs and measured by SRB assay; type: functional; conditions: read-out: Activity
Jurkat [17] = test: Antiproliferative activity against human Jurkat cells incubated for 72 hrs and measured by MTT assay; type: functional
HCT-116 [18] = test: Antiproliferative activity against p53-deficient human HCT-116 cells incubated for 72 hrs and measured by MTT assay; type: functional
Jurkat [19] = test: Induction of DNA damage in human Jurkat cells assessed as tail DNA at 0.5 uM measured after 24 hrs by comet assay; type: functional
TK-10 = test: Antiproliferative activity against human TK-10 cells incubated for 48 hrs and measured by SRB assay; type: functional
UO-31 [20] = test: Antiproliferative activity against human UO-31 cells incubated for 48 hrs and measured by SRB assay; type: functional
NCI-H460 [21] = test: Antiproliferative activity against human NCI-H460 cells assessed as relative cell growth at 10 uM incubated for 48 hrs and measured by SRB assay; type: functional; conditions: read-out: Activity
UO-31 [22] = test: Antiproliferative activity against human UO-31 cells assessed as relative cell growth at 10 uM incubated for 48 hrs and measured by SRB assay; type: functional; conditions: read-out: Activity
NCI-H522 = test: Antiproliferative activity against human NCI-H522 cells incubated for 48 hrs and measured by SRB assay; type: functional
HL-60(TB) [23] = test: Antiproliferative activity against human HL-60(TB) cells assessed as relative cell growth at 10 uM incubated for 48 hrs and measured by SRB assay; type: functional; conditions: read-out: Activity
LOX IMVI [24] = test: Antiproliferative activity against human LOX IMVI cells incubated for 48 hrs and measured by SRB assay; type: functional
K562 [25] = test: Antiproliferative activity against human K562 cells incubated for 72 hrs and measured by MTT assay; type: functional
NCI-H460 [26] = test: Antiproliferative activity against human NCI-H460 cells incubated for 48 hrs and measured by SRB assay; type: functional, cell-based; conditions: NCI-H460, 48 h
Jurkat [27] = test: Induction of DNA damage in human Jurkat cells assessed as DNA fragmentation at 0.5 uM measured by Diphenylamine assay; type: functional
[28] = read-out: LC50 (the source's name)

Cc1c(C(=O)Nc2ccc(SC#N)cc2)nnn1-c1ccc(C(C)C)cc1
Activity (Jurkat [1]): Active | IC50 [2]: 0.023 µM | Activity (DNA): 2.4% | GI50 (A549): > 100 µM | GI50 (SR [3]): 1.77 µM | TGI (SR [3]): 5.51 µM | CC50 (SR [3]; [28]): > 100 µM | growth at 10 µM (HCC 2998): 82.6% | Activity (Jurkat [4]): Active | growth at 10 µM (SF-539): 2.96% | growth at 10 µM (CAKI-1): -53.2% | GI50 (WM793): > 100 µM | GI50 (RXF 393): 4.27 µM | TGI (RXF 393): 20.4 µM | CC50 (RXF 393; [28]): 69.5 µM | GI50 (THP-1): > 100 µM | Activity (Jurkat [5]): Active | GI50 (HL-60(TB) [6]): 2.8 µM | TGI (HL-60(TB) [6]): 11.5 µM | CC50 (HL-60(TB) [6]; [28]): > 100 µM | GI50 (HaCaT): > 100 µM | GI50 (BALB/3T3): > 100 µM | growth at 10 µM (CCRF-CEM): -13.3% | GI50 (SK-OV-3): 10 µM | GI50 (SF-295 [7]): 2.71 µM | TGI (SF-295 [7]): 9.79 µM | CC50 (SF-295 [7]; [28]): > 100 µM | Activity (Jurkat [8]): Active | growth at 10 µM (A498): 93.6% | GI50 (MDA-MB-231): > 100 µM | growth at 10 µM (K562 [9]): 10.3% | GI50 (HOP-92): 2.85 µM | TGI (HOP-92): 10.2 µM | CC50 (HOP-92; [28]): 62 µM | growth at 10 µM (LOX IMVI [10]): -53.1% | growth at 10 µM (SR [11]): -19.9% | GI50 (HEK293): > 100 µM | GI50 (HCT-116 [12]): > 100 µM | GI50 (HeLa): > 100 µM | GI50 (MCF7): > 100 µM | growth at 10 µM (SF-295 [13]): 4.89% | growth at 10 µM (Malme-3M): 95.1% | Activity (Jurkat [14]): 1.3 | GI50 (KB 3-1): 7.4 µM | growth at 10 µM (MDA-MB-468): 80.1% | Activity (Jurkat [15]): Active | growth at 10 µM (MOLT-4): -17.6% | Activity (Jurkat [16]): Active | growth at 10 µM (COLO 205): 89.4% | GI50 (Jurkat [17]): 0.69 µM | GI50 (HCT-116 [18]): 8.4 µM | Activity (Jurkat [19]): 8.5% | GI50 (TK-10): 3.21 µM | TGI (TK-10): 9.94 µM | CC50 (TK-10; [28]): > 100 µM | GI50 (UO-31 [20]): 2.88 µM | TGI (UO-31 [20]): 15.5 µM | CC50 (UO-31 [20]; [28]): > 100 µM | growth at 10 µM (NCI-H460 [21]): 13.7% | growth at 10 µM (UO-31 [22]): -17.1% | GI50 (NCI-H522): 1.97 µM | TGI (NCI-H522): 5.81 µM | CC50 (NCI-H522; [28]): > 100 µM | growth at 10 µM (HL-60(TB) [23]): 8.6% | GI50 (LOX IMVI [24]): 0.15 µM | TGI (LOX IMVI [24]): 1.12 µM | CC50 (LOX IMVI [24]; [28]): 4.48 µM | GI50 (K562 [25]): 5.4 µM | IC50 (NCI-H460 [26]): 0.028 µM | Activity (Jurkat [27]): 26.7%
